Data set [1] can be described thus: weight-gain oxidative stability test of treated fish oil (induction period), Example 2. It counts as physicochemical. Particulars: for induction period (IP; time before rapid oxygen uptake): stored at about 35° C. How it is done: The oxidative stability of oils can be compared by accelerated tests, such as the weight-gain method, where oil samples are stored at elevated temperatures and oxygen atmosphere. The weight increase due to oxygen absorption is measured and plotted against time. At a certain time, depending on the oils resistance to oxidation, weight increase will be rapid, and the time before this happens is noted as the oils induction time (IP).
0.083 moles of amine/amide was added to 95 g of a fish oil, which was progressively heated to 90° C. (A series) or 140° C. (B series) during agitation to dissolve the substances in the oil. After 30 minutes at this temperature, the oil was cooled and filtered.
Three 3-g samples of filtered untreated oil, and three 3-g samples of filtered oil from each of the treatments described in table 1, were placed in identical petri dishes (60 mm, with loose fitting lids) and accurately weighed. The petri dishes were placed in an oven at about 35° C., and the weight increase related to oxygen uptake (oxidation) was recorded by weighing 3 times/week.
The results given in FIG. 4 and in FIG. 5 indicates large differences in stability as measured by induction periods (IP; i.e. the time before rapid oxygen uptake), ranging from 17 days (oils heated to 90° C. or 140° C. without any substance added) and 19 days (untreated oil), to 95 days (oils treated with hexylamine at 90° C., or allylurea at 140° C., or N,N′-dimethylurea at 140° C.).

A short description of data set [2]: solubility in oil. The data set is classed as physicochemical. Particulars: ambient temperature.
The mark [3] stands for this setting: fish oil treated with 0.083 moles per 95 g oil at 140° C. for 30 minutes.

In the case of `CNC(=O)NC` [B4, N,N′-dimethylurea], in data set [1] (fish oil treated at 140° C., experiment continued for another 70 days, about 35° C.), the “day of rapid weight increase, prolonged storage” value was 135 days. Further, in data set [1] (setting [3]), the “induction period (IP; time before rapid oxygen uptake)” value (from here on “induction period”) is reported as 95 days. For `C=CCNC(N)=O` [allylurea, Allylurea], in data set [1] (setting [3]), the “induction period” value was 95 days.

On to `NC(N)=O` [urea], for which, in data set [2], the solubility in oil entry is “approx. 1 g per kg oil”. As for `CCCCCCN` [A3, Hexylamine], in data set [1] (fish oil treated at 90° C., experiment continued for another 70 days, about 35° C.), the “stability in prolonged storage” value is “still were stable”. In data set [1] (fish oil treated with 0.083 moles per 95 g oil at 90° C. for 30 minutes), the “induction period” value came out at 95 days.

The values are drawn from patent publication US20030144355A1, “Stabilisation of pigments and polyunsaturated oils and oil concentrates” (priority 1999, published 2003).
